Measured values published in EP0603412A1, “COMPOUNDS BASED ON PALLADIUM AND ON DERIVATIVES OF AROMATIC AMINES AND METHOD OF OBTAINING THEM” (priority 1992, dated 1993).
Where two headings read alike, the source gives them in different places.

Key:
mice [1] = experiment: Radiomodifying effect under five-fold γ-irradiation at 24 hours intervals; format: in vivo; details: 10 mg/kg, 15 min after each fraction
Protocol: (§1) The mice were placed into the glass containers inserted into irradiation zone. The radiation sources were arranged in the form of "squirrel cage". The radiation doses were established by duration of the stay in active zone. […] The animals were irradiated in the range from 4.0 to 10 Gr.
(§2) A survival rate was determined on the 8th and 30th day of observation. From the data obtained were derived the curves illustrating a dependence of the survival rate upon a radiation dosage on a percentage basis. LD50/8 and LD50/30 values were estimated by extrapolation to the dosage scale.
(§3) A radiomodifying effect was evaluated by a dose change factor (DCF) calculated from the ratio of LD₅₀ in test to LD₅₀ in control.

male mice F1(CBA57BL) = details: single administration
Protocol: Tests were carried out on male hybrid mice F₁(CBAxC₅₇BL). About two thousands animals have been used in tests.
Acute toxicity off the invention compounds was determined in experiments on mice after a single intravenous and intraperitoneal administration. Tested compounds were injected in the form of 0.1 to 1.0 wt% solutions by syringe with the entry needle. Intraperitoneal route was effected by administering a suspension of the compounds in 1% starch size using a syringe and a metal probe. […] Toxicity doses were calculated and statistically processed via Litchfield-Wilcoxon technique modified by Z.Rott.

mice [2] = experiment: Radiomodifying effect under two-fold γ-irradiation at 4 hours intervals; format: in vivo; details: for Survival rate: 1st fraction 4.0 Gr; for DCF: two-fold irradiation
Protocol: as §1
A survival rate was determined on the 8th and 30th day of observation. From the data obtained were derived the curves illustrating a dependence of the survival rate upon a radiation dosage on a percentage basis.
as §3

[3] = system: male hybrid mice F₁(CBAxC₅₇BL); experiment: Radiomodifying effect under single total γ-irradiation (survival, LD50/8, LD50/30, DCF); format: in vivo; details: for DCF: based on LD50/30; for LD50/30: mouse, in vivo
Protocol: About two thousands animals have been used in tests.
Before irradiation control group of animals was intravenously administered isotonic saline solution in amount of 0.3 ml per mouse.
as §1, §2, §3

[4] = system Ephazole/0.9% NaCl, calculated from literature equilibrium constants
[5] = 10mg/kg 15 min after irradiation (Table 7)
[6] = 10mg/kg 15 min after irradiation, irradiation dose 7.5 Gr
[7] = 10mg/kg 15 min after irradiation, irradiation dose 8.0 Gr
[8] = 10mg/kg 15 min after irradiation, irradiation dose 8.5 Gr

Row | Substance | LD10 (male mice F1(CBA57BL); i.v.) [mg/kg] | DCF [3, 5] | Survival rate [3, 6] [%] | Survival rate [3, 7] [%] | LD50/30 [3] [Gr] | LD50 (male mice F1(CBA57BL); i.v., observed for a month) | Survival rate [3, 8] [%] | other results
1 | N-methyl-N-(1-phenyl-1-hydroxy-prop-2-yl)ammonium palladium tetrachloride [Ephazole] | 110 |  |  |  |  |  |  | time for using a 0.4% solution (0.4% solution in isotonic saline medium, 25°C): not over one hour; temperature over which solutions could not be heated (0.9% NaCl solutions tested at 4, 25, 40 and 100°C): ≤ 40 °C; content of [PdCl₃(H₂O)]⁻ anion under equilibrium conditions [4]: 21.3%; content of [PdCl₄]²⁻ under equilibrium conditions [4]: 78.7%; state in aqueous solutions (water as vehicle, 20 mg/10 ml and 40 mg/10 ml): profound hydrolysis; DCF (mice [1]): 1.47; LD10 (male mice F1(CBA57BL); i.p.): 180 mg/kg; Survival rate (mice [2]; 10 mg/kg i.v. within 15 min after 1st and 2nd fraction, 2nd fraction 5.0 Gr): 90%; Survival rate (mice [2]; 10 mg/kg i.v. within 15 min after 1st and 2nd fraction, 2nd fraction 5.5 Gr): 60%; Survival rate (mice [2]; 10 mg/kg i.v. within 15 min after 1st and 2nd fraction, 2nd fraction 6.0 Gr): 20%; DCF (mice [2]; 10 mg/kg i.v. within 15 min after 1st and 2nd fraction): 1.11; Survival rate (mice [2]; 10 mg/kg i.v. within 15 min after 1st fraction, 2nd fraction 4.5 Gr): 90%; Survival rate (mice [2]; 10 mg/kg i.v. within 15 min after 1st fraction, 2nd fraction 5.0 Gr): 70%; Survival rate (mice [2]; 10 mg/kg i.v. within 15 min after 1st fraction, 2nd fraction 5.5 Gr): 30%; DCF (mice [2]; 10 mg/kg i.v. within 15 min after 1st fraction): 1.06
2 | N-methyl-N-[2-hydroxy-2(4-nitrophenyl)ethyl]ammonium palladium tetrachloride [Compound 2] |  | 1.10 | 70 | 30 | 8.0 |  |  | LD10 (male mice F1(CBA57BL); i.g.): 63 mg/kg; LD50 (male mice F1(CBA57BL); i.g.): 95(107-83) mg/kg; Survival rate ([3]; 10mg/kg 15 min after irradiation, irradiation dose 7.0 Gr): 90%
3 | N-[1,3-dihydroxy-1-(4-nitrophenyl)-prop-2-yl]ammonium palladium tetrachloride [Compound 3] | 70 | 1.07 | 60 | 30 | 7.7 | 90(97.5-82.5) mg/kg | 0 | 
4 | N-ethyl-N-[2-hydroxy-2(4-hydroxyphenyl)ethyl]ammonium palladium tetrachloride [Compound 5] | 10 | 1.07 | 70 | 20 | 8.25 | 15(16.8-13.2) mg/kg | 0 | DCF ([3]; 10mg/kg 15 min before irradiation (Table 7)): 1.14; Survival rate ([3]; 10mg/kg 15 min before irradiation, irradiation dose 7.5 Gr): 90%; Survival rate ([3]; 10mg/kg 15 min before irradiation, irradiation dose 8.0 Gr): 70%; Survival rate ([3]; 10mg/kg 15 min before irradiation, irradiation dose 8.5 Gr): 30%; LD50/30 ([3]; listed as compound 5): 7.75 Gr
5 | N-methyl-N-(2-phenyl-2-hydroxypropyl)ammonium palladium tetrachloride [Compound 4] | 75 | 1.07 | 80 | 20 | 7.75 | 100(109.5-91.5) mg/kg | 10 | 
